Measured values as given in patent US20220160651A1, “RAPIDLY IMPROVING ENDOTHELIAL FUNCTION, REDUCING ARTERIAL STIFFNESS AND REVERSING CALCIFICATION OF BLOOD VESSELS BY ADMINISTERING VITAMIN K” (KAYDENCE PHARMA AS, priority 2019, published 2022).

Experiments:
ApoE/LDLR−/− mice [1] = experiment: Histological assessment of plaque size and composition and vessel wall area in BCA (Example 2); format: in vivo; settings: two months
Excerpt: Plaque size and composition as well as vessel wall area (VWA) in BCA—Histological assessment, cross-section method, BCA cross-sections: total 13000 slides, Photographed: 1214 slides
For the determination of atherosclerotic plaque area and composition BCA was dissected, fixed in 4% buffered formalin and embedded in paraffin. 5 μm-thick serial sections of BCA were collected from proximal, middle and distal parts of artery. Originally developed staining with Unna's orcein combined with Martius, Scarlet and Blue trichrome (OMSB), was applied on every tenth section (50 μm interval between each section) for visualization of collagen, elastin, fibrin, red blood cells and vascular smooth muscle cells within atherosclerotic plaque. The areas of particular components of atherosclerotic plaque as well as artery lumen and wall were determined after Columbus-based software processing (FIG. 1B) using a previously developed algorithm [Gajda M, Jasztal A, Banasik T, Jasek-Gajda E, Chlopicki S. Combined orcein and martius scarlet blue (OMSB) staining for qualitative and quantitative analyses of atherosclerotic plaques in brachiocephalic arteries in apoE/LDLR−/− mice. Histochem Cell Biol 2017. doi:10.1007/s00418-017-1538-81.

matrix gla protein (MGP) = experiment: Clinical study: blood analysis of matrix gla protein carboxylation; format: in vivo, human; settings: 360 ug/day, after 8 weeks of treatment, kidney transplant patients
Description: Participants were enrolled in a clinical trial in which the effects of vitamin K2 were determined for patients who had recently undergone a kidney transplant. At the beginning of the study, patients were subjected to a non-invasive pulse wave velocity measurement to measure arterial stiffness/flexibility, as well as blood analysis. The study participants were then instructed to receive a specific daily dose of MenaQ7 vitamin K2 menaquinone-7 (360 ug/day) for a total of 8 weeks. At the end of 8 weeks, patients were again examined with a follow-up examination, a non-invasive pulse wave velocity measurement and blood analysis and drug treatment was discontinued.
As part of the blood analysis, carboxylated matrix gla protein (MGP) was measured as a direct measure of vitamin K2 activity. The carboxylated MGP inhibits calcification of blood vessels and Vitamin K2 stimulates carboxylation of MGP.

ApoE/LDLR−/− mice [2] = experiment: Nitrite and nitrate concentration in plasma, older mice (Example 3); format: in vivo; settings: 0.03 and 10 mg/kg b.w./day, eight weeks
[3] = test system: endothelial nitric oxide synthase (eNOS)-dependent nitric oxide (NO) production; experiment: Endothelial NO production in ex vivo aorta by EPR spin-trapping; settings: 0.05 mg/kg b.w./day, vs untreated age-matched mice
Excerpt: For measurements of endothelial nitric oxide synthase (eNOS)-dependent nitric oxide (NO) production, EPR spin-trapping with diethyldithiocarbamic acid sodium salt (DETC) was used ex vivo, as described in Przyborowski K, Proniewski B, Czarny J, Smeda M, Sitek B, Zakrzewska A, et al. Vascular Nitric Oxide-Superoxide Balance and Thrombus Formation after Acute Exercise. Med Sci Sport Exerc 2018:1. doi:10.1249/MSS.0000000000001589, with minor modifications. Isolated aorta cleared from surrounding tissue was opened longitudinally and preincubated with 10 μM L-NIL (N6-(1-Iminoethyl)-lysine, hydrochloride) in Krebs-HEPES buffer for 30 minutes at 37° C. in a well of a 48-well plate. Next, 250 μL of Fe(DETC)2 colloid was added and aorta was stimulated with calcium ionophore A23187 (the final concentration was 1 μM) and subsequently, incubated for 90 minutes at 37° C. Finally, aorta was weighed and frozen in liquid nitrogen (suspended in fresh buffer) into the middle of a 400 μL column of Krebs-Hepes buffer and stored at −80° C. until measured. EPR spectra were obtained using an X-band EPR spectrometer (EMX Plus, Bruker, Germany), equipped with a rectangular resonator cavity H102. Signals were quantified by measuring the total amplitude of the NO-Fe(DETC)2 after correction of baseline. The quantitative results of NO production assessed by EPR were expressed in AU/mg of tissue.

CC(C)=CCC/C(C)=C/CC/C(C)=C/CC/C(C)=C/CC/C(C)=C/CC/C(C)=C/CC/C(C)=C/CC1=C(C)C(=O)c2ccccc2C1=O [MK-7, menaquinone-7]
decrease in vessel wall area (VWA) of BCA (ApoE/LDLR−/− mice [1]; low and high dose (0.03 and 10 mg/kg b.w./day)): about 5% | decrease of lipid core expressed as percent of plaque (ApoE/LDLR−/− mice [1]; low and high dose): about 17% | effect on plaque size (ApoE/LDLR−/− mice [1]; low or high dose): did not result in a beneficial effect on plaque size | plaque and lumen area expressed as percent of IWA (ApoE/LDLR−/− mice [1]; low or high dose): did not change | internal wall area (IWA) (ApoE/LDLR−/− mice [1]; lower dose 0.03 mg/kg b.w./day): decreased only in the middle part of the vessel | content of collagen in plaque (ApoE/LDLR−/− mice [1]; treated vs untreated groups): lack of differences between treated and untreated groups | mean reduction of levels of uncarboxylated MGP (matrix gla protein (MGP)): 55% | concentration of NO3− in plasma (ApoE/LDLR−/− mice [2]): did not change significantly | nitric oxide production in ex vivo aorta by EPR [3]: increased nitric oxide production
